Measurements: US7842808B2, “Anti-migraine spirocycles” (Bristol-Myers Squibb Company, priority 2002, dated 2010)

Tests used:
[1] = tested on: human cerebral vessels (CGRP-induced dilation); assay: Ex Vivo Human Cerebral Artery Assay, reversal of CGRP-induced relaxation; details: reversal of 1 nM hCGRP-induced relaxation, vessels pre-contracted with 10 mM KCl
Procedure, shortened: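 Autopsy human cerebral artery rings (4-5 mm) in Krebs buffer, 37 °C, pH 7.4, carbogen; primed with 100 mM KCl, pre-contracted with 10 mM KCl and fully dilated with 1 nM hCGRP. Antagonists added cumulatively in half-log steps; tension recorded as % reversal of CGRP relaxation, EC50 by four-parameter logistic fit per vessel.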

[2] = target: T1, CGRP receptor (SK-N-MC cell membranes) (Homo sapiens, UniProt O60894+Q16602); assay: CGRP Binding Assay ([125I]-CGRP radioligand binding, SK-N-MC homogenate); details: displacement of [125I]-CGRP, SK-N-MC homogenate; read-out: CGRP binding IC50
T1 construct: endogenous in cells; host or cells: SK-N-MC cells (membrane homogenate)
T1 sequence (Q16602 23-461): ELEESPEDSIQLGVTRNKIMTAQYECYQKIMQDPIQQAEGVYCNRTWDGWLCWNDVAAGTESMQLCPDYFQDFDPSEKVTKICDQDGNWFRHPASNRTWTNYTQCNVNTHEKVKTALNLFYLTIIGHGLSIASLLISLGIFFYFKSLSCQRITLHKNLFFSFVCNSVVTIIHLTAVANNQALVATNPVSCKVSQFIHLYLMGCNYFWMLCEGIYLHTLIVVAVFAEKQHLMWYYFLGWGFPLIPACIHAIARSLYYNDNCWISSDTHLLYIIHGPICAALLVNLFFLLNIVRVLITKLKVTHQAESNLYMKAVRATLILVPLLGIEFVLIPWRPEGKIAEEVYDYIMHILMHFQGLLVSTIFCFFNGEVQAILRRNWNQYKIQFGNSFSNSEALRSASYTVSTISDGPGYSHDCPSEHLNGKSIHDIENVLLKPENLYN
T1 sequence (O60894 27-148): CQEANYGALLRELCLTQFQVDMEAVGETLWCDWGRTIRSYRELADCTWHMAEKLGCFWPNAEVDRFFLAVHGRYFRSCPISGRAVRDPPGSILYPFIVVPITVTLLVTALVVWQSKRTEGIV

EC50 [1] [µM] | IC50 [2] [µM] | Compound
< 0.01 | < 0.01 | Cc1cc(CC(NC(=O)N2CCC(N3Cc4ccccc4NC3=O)CC2)C(=O)N2CCC(N3CCCCC3)CC2)cc2cn[nH]c12 (racemic) [Example 16, (±)-4-(2-Oxo-1,4-dihydro-2H-quinazolin-3-yl)-piperidine-1-carboxylic acid[2-[1,4′]bipiperidinyl-1′-yl-1-(7-methyl-1H-indazol-5-ylmethyl)-2-oxo-ethyl]-amide]
< 0.01 | < 0.01 | Cc1cc(CC(CC(=O)N2CCC(N3Cc4ccccc4NC3=O)CC2)C(=O)N2CCC(N3CCCCC3)CC2)cc2cn[nH]c12 (racemic) [Example 69, (±)-1-[1,4′]Bipiperidinyl-1′-yl-2-(7-methyl-1H-indazol-5-ylmethyl)-4-[4-(2-oxo-1,4-dihydro-2H-quinazolin-3-yl)-piperidin-1-yl]-butane-1,4-dione]
